Consider ten compounds from ChEMBL document CHEMBL5226310, “Synthesis and Characterization of Novel Mono- and Bis-Guanyl Hydrazones as Potent and Selective ASIC1 Inhibitors Able to Reduce Brain Ischemic Insult” (J Med Chem, 2021).

In general, IC50 refers to the point on the concentration scale where inhibition reaches its midpoint. Usually inhibition stands for the relative decrease from the control value, in per cent.

The structures appear in SMILES notation. Active and inactive are the calls of the source. The calls are words filed in the database; no cut-off is given here.

Test [1] concerns the target T1, Acid-sensing ion channel 1 (Homo sapiens, UniProt P78348).
T1 sequence (P78348 whole entry): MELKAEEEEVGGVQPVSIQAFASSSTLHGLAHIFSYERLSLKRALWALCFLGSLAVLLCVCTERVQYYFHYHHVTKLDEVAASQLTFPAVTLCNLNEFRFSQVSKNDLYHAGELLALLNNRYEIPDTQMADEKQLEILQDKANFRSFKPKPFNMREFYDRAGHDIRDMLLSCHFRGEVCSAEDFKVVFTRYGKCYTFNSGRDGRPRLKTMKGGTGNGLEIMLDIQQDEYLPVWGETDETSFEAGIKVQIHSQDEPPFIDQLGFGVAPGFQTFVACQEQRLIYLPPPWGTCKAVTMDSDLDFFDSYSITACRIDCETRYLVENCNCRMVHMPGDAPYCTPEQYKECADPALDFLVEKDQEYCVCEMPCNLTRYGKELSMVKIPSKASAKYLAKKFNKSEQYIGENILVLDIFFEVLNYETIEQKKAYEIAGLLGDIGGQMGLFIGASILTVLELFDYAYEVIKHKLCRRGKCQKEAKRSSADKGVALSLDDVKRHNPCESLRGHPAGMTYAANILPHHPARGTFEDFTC
Kind of test: Inhibition of human ASIC1a in HEK293 cells assessed as inward proton-gated current at pH 6.0 incubated with compound followed by PcTx1 addition by patch-clamp electrophysiology. Format: cell-based. On the technique in general: The patch-clamp technique gives a direct electrical read-out from membranes.

Test [2] has as its system Mus musculus. Nature of the test: Neuroprotective activity in mouse model of middle cerebral artery occlusion-induced transient brain ischemia assessed as reduction in neurological deficits at 0.8 mg/kg, ip administered thrice measured after 24 hrs. Format: functional, organism-based.
Test [3] concerns the target T2, Acid-sensing ion channel 1 (Mus musculus) (UniProt Q6NXK8).
T2 sequence (whole entry): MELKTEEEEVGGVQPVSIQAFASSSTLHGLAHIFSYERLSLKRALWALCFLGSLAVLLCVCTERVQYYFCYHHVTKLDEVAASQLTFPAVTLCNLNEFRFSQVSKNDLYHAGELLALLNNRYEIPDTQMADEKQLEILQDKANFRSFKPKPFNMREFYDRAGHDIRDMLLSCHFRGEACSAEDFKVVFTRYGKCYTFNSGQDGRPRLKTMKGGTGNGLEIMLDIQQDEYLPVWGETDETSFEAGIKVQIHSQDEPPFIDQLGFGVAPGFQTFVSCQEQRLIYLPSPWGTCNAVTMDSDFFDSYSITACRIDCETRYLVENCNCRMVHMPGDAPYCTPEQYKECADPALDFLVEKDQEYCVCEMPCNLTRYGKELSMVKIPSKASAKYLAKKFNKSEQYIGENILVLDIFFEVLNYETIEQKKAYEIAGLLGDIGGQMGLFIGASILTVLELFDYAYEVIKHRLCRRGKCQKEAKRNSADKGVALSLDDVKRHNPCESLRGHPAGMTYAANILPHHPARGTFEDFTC
Kind of test: Inhibition of mouse ASIC1a expressed in genetically engineered-CHO-K1 cells at 10 uM preincubated for 10 mins at pH 7.4 followed by cell stimulation with proton injection at pH 6.5 by electro-chromic fluorescence voltage sensor-based assay relative to control.

Test [4] concerns Cortical neurone. Kind of test: Neuroprotective activity in OGD/Rx-induced E16 Wistar rat Primary cortical neurons assessed as increase in cell viability at 0.38 uM incubated for 3 hrs during OGD followed by reoxygenation with compound re-addition measured after 21 hrs by MTT assay. Particulars: time 24.0 hrs. The test is classed as functional, cell-based. Background: Formazan colour is commonly taken as a measure of viable cells.

In test [5] the target is T3, Acid-sensing ion channel 2 (Mus musculus) (UniProt Q925H0).
T3 sequence (whole entry): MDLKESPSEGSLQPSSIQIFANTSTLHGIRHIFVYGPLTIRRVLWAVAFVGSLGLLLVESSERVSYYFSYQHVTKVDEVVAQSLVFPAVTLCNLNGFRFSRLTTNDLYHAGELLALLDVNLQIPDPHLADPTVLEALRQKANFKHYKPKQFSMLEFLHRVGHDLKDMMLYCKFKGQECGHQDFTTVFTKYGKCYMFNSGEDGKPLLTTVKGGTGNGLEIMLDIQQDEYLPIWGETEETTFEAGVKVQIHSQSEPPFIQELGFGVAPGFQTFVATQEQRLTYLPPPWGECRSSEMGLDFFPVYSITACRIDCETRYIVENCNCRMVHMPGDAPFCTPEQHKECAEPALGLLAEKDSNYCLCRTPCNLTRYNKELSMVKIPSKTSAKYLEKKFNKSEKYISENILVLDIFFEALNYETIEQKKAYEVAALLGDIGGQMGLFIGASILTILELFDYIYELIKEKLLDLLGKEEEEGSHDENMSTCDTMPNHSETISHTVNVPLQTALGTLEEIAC
Kind of test: Inhibition of mouse ASIC2a expressed in genetically engineered-CHO-K1 cells at 10 uM preincubated for 10 mins at pH 7.4 followed by cell stimulation with proton injection at pH 6.5 by electro-chromic fluorescence voltage sensor-based assay relative to control.

The test system of test [6] is Mus musculus. Nature of the test: Neuroprotective activity in mouse model of middle cerebral artery occlusion-induced transient brain ischemia assessed as decrease in ischemic volume at 0.8 mg/kg, ip administered thrice measured after 24 hrs (reference value: 58 +/- 2.6 %). Format: functional. On the set-up: scale not given: the % may be the effect or the level left.

The subject of test [7] is Cortical neurone. Kind of test: Neuroprotective activity in OGD/Rx-induced E16 Wistar rat Primary cortical neurons assessed as increase in cell viability at 0.13 uM incubated for 3 hrs during OGD followed by reoxygenation with compound re-addition measured after 21 hrs by MTT assay. The test is classed as functional, cell-based. Particulars: time 24.0 hrs.
Test [8] has as its system Cortical neurone. Kind of test: Neuroprotective activity in OGD/Rx-induced E16 Wistar rat Primary cortical neurons assessed as increase in cell viability at 9.5 uM incubated for 3 hrs during OGD followed by reoxygenation with compound re-addition measured after 21 hrs by MTT assay. The test is classed as functional, cell-based. The conditions noted are these: time 24.0 hrs.

Test [9] relates to Cortical neurone. Nature of the test: Neuroprotective activity in OGD/Rx-induced E16 Wistar rat Primary cortical neurons assessed as increase in cell viability at 0.52 uM incubated for 3 hrs during OGD followed by reoxygenation with compound re-addition measured after 21 hrs by MTT assay. The test is classed as functional, cell-based. Particulars: time 24.0 hrs.
Test [10] concerns Cortical neurone. Kind of test: Neuroprotective activity in OGD/Rx-induced E16 Wistar rat Primary cortical neurons assessed as increase in cell viability at 2.9 uM incubated for 3 hrs during OGD followed by reoxygenation with compound re-addition measured after 21 hrs by MTT assay. The test is classed as functional, cell-based. Particulars: time 24.0 hrs.
For test [11], the system named is Cortical neurone. Kind of test: Neuroprotective activity in OGD/Rx-induced E16 Wistar rat Primary cortical neurons assessed as increase in cell viability at 2.59 uM incubated for 3 hrs during OGD followed by reoxygenation with compound re-addition measured after 21 hrs by MTT assay. The test is classed as functional, cell-based.
Test [12] concerns Cortical neurone. Nature of the test: Neuroprotective activity in OGD/Rx-induced E16 Wistar rat Primary cortical neurons assessed as increase in cell viability at 1.41 uM incubated for 3 hrs during OGD followed by reoxygenation with compound re-addition measured after 21 hrs by MTT assay. Format: functional, cell-based. The conditions noted are these: time 24.0 hrs.
The test system of test [13] is Cortical neurone. Kind of test: Neuroprotective activity in OGD/Rx-induced E16 Wistar rat Primary cortical neurons assessed as increase in cell viability at 1.4 uM incubated for 3 hrs during OGD followed by compound removal and reoxygenation measured after 21 hrs by MTT assay. The test is classed as functional, cell-based.
Test [14] concerns Cortical neurone. Nature of the test: Neuroprotective activity in OGD/Rx-induced E16 Wistar rat Primary cortical neurons assessed as increase in cell viability at 2.1 uM incubated for 3 hrs during OGD followed by compound removal and reoxygenation measured after 21 hrs by MTT assay. Format: functional, cell-based.
Test [15] has as its system Cortical neurone. Nature of the test: Neuroprotective activity in OGD/Rx-induced E16 Wistar rat Primary cortical neurons assessed as increase in cell viability incubated for 3 hrs during OGD followed by reoxygenation with compound re-addition measured after 21 hrs by MTT assay. Format: functional, cell-based. Particulars: time 24.0 hrs.
In test [16] the test system is Mus musculus. Nature of the test: Neuroprotective activity in mouse model of middle cerebral artery occlusion-induced transient brain ischemia assessed as decrease in ischemic volume at 0.6 mg/kg, ip administered thrice measured after 24 hrs (reference value: 58 +/- 2.6 %). On the set-up: scale not given: the % may be the effect or the level left. Format: functional.

Test [17] deals with Cortical neurone. Kind of test: Neuroprotective activity in OGD/Rx-induced E16 Wistar rat Primary cortical neurons assessed as increase in cell viability at 2.1 uM incubated for 3 hrs during OGD followed by reoxygenation with compound re-addition measured after 21 hrs by MTT assay. Format: functional, cell-based. The conditions noted are these: time 24.0 hrs.
Test [18] deals with Cortical neurone. Kind of test: Neuroprotective activity in OGD/Rx-induced E16 Wistar rat Primary cortical neurons assessed as increase in cell viability at 3.14 uM incubated for 3 hrs during OGD followed by reoxygenation with compound re-addition measured after 21 hrs by MTT assay. Format: functional, cell-based. Particulars: time 24.0 hrs.
In test [19] the test system is Cortical neurone. Nature of the test: Neuroprotective activity in OGD/Rx-induced E16 Wistar rat Primary cortical neurons assessed as increase in cell viability at 3.14 uM incubated for 3 hrs during OGD followed by compound removal and reoxygenation measured after 21 hrs by MTT assay. Format: functional, cell-based.
The subject of test [20] is Cortical neurone. Nature of the test: Neuroprotective activity in OGD/Rx-induced E16 Wistar rat Primary cortical neurons assessed as increase in cell viability at 1.9 uM incubated for 3 hrs during OGD followed by reoxygenation with compound re-addition measured after 21 hrs by MTT assay. The test is classed as functional, cell-based. The conditions noted are these: time 24.0 hrs.

With `Cl.Cl.N=C(N)N/N=C\c1ccc(-c2cc(-c3ccc(/C=N\NC(=N)N)cc3)[nH]n2)cc1`, in [1], the IC50 was 729 nM. For the same compound, the result with Mus musculus [2] and with Cortical neurone [4] was Active. Also, the inhibition in [3] was 9.09%; in test [5], 61.3%. In the test with Mus musculus [6], the Activity stood at 40.9%.
Take `Br.Br.C(=N/NC1=NCCN1)/c1ccc(-c2cc(-c3ccc(/C=N/NC4=NCCN4)cc3)[nH]n2)cc1`: the concentration for half-maximal inhibition (IC50) in test [1] came out at 972 nM. The result with Mus musculus [2] and in the test with Cortical neurone [7] was Active. Further, the inhibition was -3.26% in test [3] and 50.6% in test [5]. In addition, the Activity with Mus musculus [6] stood at 40.9%.
For `N=C(N)N/N=C/c1ccc(-c2cc(-c3ccc(F)cc3)on2)cc1`, in [1], the IC50 came out at 9540 nM. The result in the test with Cortical neurone [8] was Active. Further, the values for the inhibition in [3] and in test [5] were 24.2% and 95.9%, respectively.
Turning to `COc1ccc(Cn2nc(-c3ccc(/C=N/NC(=N)N)cc3)cc2-c2ccc(/C=N/NC(=N)N)cc2)cc1`, the IC50 in [1] stood at 518 nM. The outcome in the test with Cortical neurone [9] was Active. In addition, the values for the inhibition in test [3] and in test [5] were 72.9% and 69.7%, respectively.
On to `CC(C)(C)c1ccc(-c2cccc(-c3ccc(/C=N/NC(=N)N)cc3)c2)cc1`, for which the half-inhibitory concentration (IC50) in [1] worked out at 2950 nM. The result with Cortical neurone [10] was Active.
Turning to `N=C(N)N/N=C/c1ccc(-c2cc(-c3ccc(F)cc3)n[nH]2)cc1`, the IC50 in test [1] worked out at 2590 nM. Moreover, in the test with Cortical neurone [11], the outcome was Active. Also, the inhibition was found to be 41.6% in test [3] and 83.6% in test [5].
For the compound `Cn1nc(-c2ccc(/C=N/NC(=N)N)cc2)cc1-c1ccc(/C=N/NC(=N)N)cc1`, the IC50 in [1] came out at 1420 nM. Besides, the inhibition in [3] was found to be 33.1%; in [5] it was 43.9%. Moreover, the result in the test on Cortical neurone [12] and in the test on Cortical neurone [13] was Active.
For the compound `N=C(N)N/N=C/c1ccc(-c2cc(-c3ccc(Br)cc3)n[nH]2)cc1`, the IC50 in test [1] came to 1990 nM. Further, the figures for the inhibition in test [3] and in test [5] were 24.6% and 86.2%, respectively. The result in the test with Cortical neurone [14] and in the test with Cortical neurone [17] was Active. The Activity entry in the test on Cortical neurone [15] is “Dose-Dependent Effect”; in the test with Mus musculus [16], 44%.
For `Cn1nc(-c2ccc(F)cc2)cc1-c1ccc(/C=N/NC(=N)N)cc1`, the IC50 in test [1] was 3140 nM. The outcome with Cortical neurone [18] and in the test on Cortical neurone [19] was Active. Moreover, the inhibition in test [3] is 16.8%; in test [5], 96.6%.
`COc1ccc(Cn2nc(-c3ccc(F)cc3)cc2-c2ccc(/C=N/NC(=N)N)cc2)cc1`: the IC50 in test [1] was determined as 1990 nM. Further, the inhibition in test [5] is 40.3%. For the same compound, the result with Cortical neurone [20] was Active.
